Read-outs that look alike come from different tables or passages of the source.
How the values were obtained:
[1] = biological target: T1, creatine amidinohydrolase of this invention (from Flavobacterium U-188, Micrococcus luteus ATCC 398 or Corynebacterium U-41) (Flavobacterium sp. U-188, UniProt P19213); experiment: Creatine amidinohydrolase activity, enzyme of this invention; type: biochemical
T1 sequence (P19213 1-403): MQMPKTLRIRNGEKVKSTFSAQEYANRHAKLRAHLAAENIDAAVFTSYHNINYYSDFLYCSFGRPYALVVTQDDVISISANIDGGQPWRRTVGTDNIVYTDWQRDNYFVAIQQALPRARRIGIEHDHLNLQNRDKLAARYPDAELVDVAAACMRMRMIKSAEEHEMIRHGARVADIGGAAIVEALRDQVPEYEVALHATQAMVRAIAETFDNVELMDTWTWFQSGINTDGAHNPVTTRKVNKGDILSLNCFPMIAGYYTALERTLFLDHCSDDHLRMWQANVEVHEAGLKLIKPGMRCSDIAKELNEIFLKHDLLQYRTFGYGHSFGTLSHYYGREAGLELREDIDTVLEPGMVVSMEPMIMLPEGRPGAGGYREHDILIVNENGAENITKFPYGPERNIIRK
Experimental: This enzyme has an ability to hydrolyze creatine into urea and sarcosine. […] 2.
To 0.8 ml of 0.1 M creatine solution are added 0.1 of 0.3 M phosphate buffer (pH 7.7) and 0.1 ml of a solution of this enzyme having an appropriate concentration, and the resulting mixture is reacted at 37° C. for 10 minutes. Then, 2 ml of 2% (W/V) p-dimethylaminobenzaldehyde solution (prepared by dissolving 2 g of p-dimethylaminobenzaldehyde into 100 ml of 99.5% ethanol, adding 15 ml of concentrated hydrochloric acid and diluting the mixture with distilled water to a 2 times greater quantity) is added, and the resulting mixture is allowed to stand at 25° C. for 30 minutes. Then, its absorbance (O. D. value) at 435 mμ is measured with photoelectric colorimeter. […] The quantity of enzyme necessary for producing 1 micromole of urea per one minute at 37° C. is taken as one unit.

[2] = biological target: T2, creatine amidinohydrolase of prior art (i) (Journal of General Microbiology, Vol. 14, pp. 351 to 365 (1956); Genus Pseudomonas) (Pseudomonas putida, UniProt P38488); conditions: cited from earlier work
T2 sequence (P38488 1-403): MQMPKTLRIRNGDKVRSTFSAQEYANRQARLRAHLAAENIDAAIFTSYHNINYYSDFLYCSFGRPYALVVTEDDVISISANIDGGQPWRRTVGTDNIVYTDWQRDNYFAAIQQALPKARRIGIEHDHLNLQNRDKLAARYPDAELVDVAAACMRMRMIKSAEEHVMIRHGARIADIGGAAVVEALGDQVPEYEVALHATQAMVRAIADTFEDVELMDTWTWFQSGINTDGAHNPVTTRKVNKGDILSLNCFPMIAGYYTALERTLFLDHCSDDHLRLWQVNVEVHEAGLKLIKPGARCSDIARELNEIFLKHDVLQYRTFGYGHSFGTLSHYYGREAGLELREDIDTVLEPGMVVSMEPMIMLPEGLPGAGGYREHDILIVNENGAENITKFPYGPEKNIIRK

[3] = inhibitor final concentration 5 × 10^-2 M, pH 9.1
[4] = inhibitor final concentration 2 × 10^-2 M

In the case of `O=C(O)CI` [Iodoacetate], the inhibition at 10000 µM ([1]; read-out: Percentage inhibition of creatine removal) is listed as 0% and the “Percentage inhibition of creatine removal” value (from here on “Percentage inhibition”) ([2]; inhibitor final concentration 10^-2 M) is listed as 20%.

In the case of Borate, the “Percentage inhibition” value [1, 3] is given as 40% and the “Percentage inhibition” value [2, 3] is given as 80%.

In the case of `[N-]=[N+]=[N-]` [Azide], the “Percentage inhibition” value [1, 4] is given as 0% and the “Percentage inhibition” value [2, 4] is given as 18%.

— patent US4039384A, “Creatinine amidohydrolase and creatine amidinohydrolase and process for producing them” (Noda Institute for Scientific Research, priority 1975, dated 1977)
